One test concerns the target Adenosine kinase (Homo sapiens, UniProt P55263).
The target in test [1] is Mitotic checkpoint serine/threonine-protein kinase BUB1 (Homo sapiens, UniProt O43683).
Test [2] has as its target Cyclin-dependent kinase 17 (Homo sapiens, UniProt Q00537).
A further test deals with T1, Scaffold protein ILK (Homo sapiens, UniProt Q13418).
T1 sequence (Q13418 whole entry): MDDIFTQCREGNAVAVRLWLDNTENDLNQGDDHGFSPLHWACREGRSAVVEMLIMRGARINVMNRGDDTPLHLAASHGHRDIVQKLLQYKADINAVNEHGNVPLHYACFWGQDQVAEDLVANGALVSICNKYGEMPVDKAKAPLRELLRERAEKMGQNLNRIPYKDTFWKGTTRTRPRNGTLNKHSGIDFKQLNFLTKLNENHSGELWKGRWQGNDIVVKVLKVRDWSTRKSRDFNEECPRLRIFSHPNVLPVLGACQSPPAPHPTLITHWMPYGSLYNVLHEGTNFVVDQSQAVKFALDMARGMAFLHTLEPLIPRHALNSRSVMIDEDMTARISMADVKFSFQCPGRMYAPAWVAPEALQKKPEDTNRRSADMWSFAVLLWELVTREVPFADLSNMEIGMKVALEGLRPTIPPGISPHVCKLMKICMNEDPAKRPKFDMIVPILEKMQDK

Test [3] has as its target Mitogen-activated protein kinase kinase kinase kinase 4 (Homo sapiens, UniProt O95819).
In test [4] the target is S-adenosylmethionine synthase isoform type-2 (Homo sapiens, UniProt P31153).
Sequence of S-adenosylmethionine synthase isoform type-2 (P31153 whole entry, canonical isoform): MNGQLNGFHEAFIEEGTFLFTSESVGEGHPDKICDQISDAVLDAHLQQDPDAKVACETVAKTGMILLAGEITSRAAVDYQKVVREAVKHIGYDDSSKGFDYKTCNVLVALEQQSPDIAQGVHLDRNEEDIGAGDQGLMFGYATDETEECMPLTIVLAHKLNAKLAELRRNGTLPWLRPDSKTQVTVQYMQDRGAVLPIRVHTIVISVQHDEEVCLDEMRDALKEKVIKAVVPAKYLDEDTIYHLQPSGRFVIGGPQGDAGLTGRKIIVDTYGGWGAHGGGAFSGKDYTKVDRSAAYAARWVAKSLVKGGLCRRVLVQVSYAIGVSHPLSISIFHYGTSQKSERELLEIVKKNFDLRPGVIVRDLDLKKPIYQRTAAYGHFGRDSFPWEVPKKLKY
Test [5] concerns the target Maternal embryonic leucine zipper kinase (Homo sapiens, UniProt Q14680).
Test [6] addresses Hepatocyte growth factor receptor (Homo sapiens, UniProt P08581).
For test [7], the target named is T2, Dynamin-like GTPase OPA1, mitochondrial (Homo sapiens, UniProt O60313).
T2 sequence (O60313 whole entry): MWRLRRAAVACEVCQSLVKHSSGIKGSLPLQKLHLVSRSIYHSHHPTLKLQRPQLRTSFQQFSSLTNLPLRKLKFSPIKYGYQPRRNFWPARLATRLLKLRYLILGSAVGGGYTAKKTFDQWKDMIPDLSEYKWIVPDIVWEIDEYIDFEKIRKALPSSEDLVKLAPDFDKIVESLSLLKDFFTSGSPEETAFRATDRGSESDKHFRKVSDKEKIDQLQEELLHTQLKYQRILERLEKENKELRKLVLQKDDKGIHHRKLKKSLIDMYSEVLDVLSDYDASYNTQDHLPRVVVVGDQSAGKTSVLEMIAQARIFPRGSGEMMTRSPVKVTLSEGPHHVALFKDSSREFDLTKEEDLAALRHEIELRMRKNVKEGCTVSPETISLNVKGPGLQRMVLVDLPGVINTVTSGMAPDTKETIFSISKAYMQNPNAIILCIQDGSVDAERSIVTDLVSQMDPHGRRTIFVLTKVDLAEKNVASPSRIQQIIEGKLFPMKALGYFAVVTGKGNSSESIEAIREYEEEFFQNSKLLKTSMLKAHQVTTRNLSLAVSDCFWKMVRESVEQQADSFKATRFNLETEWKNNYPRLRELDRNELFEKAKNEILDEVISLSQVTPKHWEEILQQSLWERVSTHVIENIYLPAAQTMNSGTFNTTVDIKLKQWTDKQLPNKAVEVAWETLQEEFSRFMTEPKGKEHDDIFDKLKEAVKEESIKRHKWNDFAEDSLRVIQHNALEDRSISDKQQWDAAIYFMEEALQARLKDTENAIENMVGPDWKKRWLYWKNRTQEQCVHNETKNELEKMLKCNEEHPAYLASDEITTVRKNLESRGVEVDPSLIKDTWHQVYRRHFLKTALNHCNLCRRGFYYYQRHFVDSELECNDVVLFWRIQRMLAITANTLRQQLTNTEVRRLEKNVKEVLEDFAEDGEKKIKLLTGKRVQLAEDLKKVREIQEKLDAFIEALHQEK

Test [8] deals with 5'-AMP-activated protein kinase catalytic subunit alpha-1 (Homo sapiens, UniProt Q13131).
In test [9] the target is Ribosomal protein S6 kinase alpha-6 (Homo sapiens, UniProt Q9UK32).
The target in test [10] is STE20-like serine/threonine-protein kinase (Homo sapiens, UniProt Q9H2G2).
For test [11], the target named is Proto-oncogene tyrosine-protein kinase Src (Homo sapiens, UniProt P12931).
The target in test [12] is Serine/threonine-protein kinase 26 (Homo sapiens, UniProt Q9P289).
Test [13] concerns the target T3, Non-receptor tyrosine-protein kinase TNK1 (Homo sapiens, UniProt Q13470).
T3 sequence (Q13470 whole entry): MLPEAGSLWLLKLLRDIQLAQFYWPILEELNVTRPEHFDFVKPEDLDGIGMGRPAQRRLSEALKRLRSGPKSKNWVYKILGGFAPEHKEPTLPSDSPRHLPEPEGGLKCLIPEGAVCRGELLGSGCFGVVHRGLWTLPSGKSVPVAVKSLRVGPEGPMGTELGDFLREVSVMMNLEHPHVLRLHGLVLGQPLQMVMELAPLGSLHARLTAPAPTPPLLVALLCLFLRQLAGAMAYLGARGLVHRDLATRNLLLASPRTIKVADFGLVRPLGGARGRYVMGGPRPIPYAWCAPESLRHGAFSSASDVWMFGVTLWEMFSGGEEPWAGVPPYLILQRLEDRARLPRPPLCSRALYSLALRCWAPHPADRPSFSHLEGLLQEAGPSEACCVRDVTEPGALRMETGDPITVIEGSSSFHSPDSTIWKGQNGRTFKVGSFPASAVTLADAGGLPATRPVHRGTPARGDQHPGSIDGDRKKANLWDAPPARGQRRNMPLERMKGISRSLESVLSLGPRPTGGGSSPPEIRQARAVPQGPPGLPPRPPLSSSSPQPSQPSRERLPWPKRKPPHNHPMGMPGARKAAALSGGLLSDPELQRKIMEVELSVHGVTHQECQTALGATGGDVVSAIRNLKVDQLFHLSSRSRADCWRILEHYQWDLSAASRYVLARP

The target of test [14] is Non-receptor tyrosine-protein kinase TYK2 (Homo sapiens, UniProt P29597).
Test [15] addresses Dual specificity protein kinase CLK1 (Homo sapiens, UniProt P49759).

The source made the active and inactive calls. Cut-off read from the data, not from the text of the source, for most assays here: actives have a measured Kd and inactives only a lower limit.
Note: in the data inactive means no Kd found up to 30 µM.

Sequence of Cyclin-dependent kinase 17 (Q00537 whole entry): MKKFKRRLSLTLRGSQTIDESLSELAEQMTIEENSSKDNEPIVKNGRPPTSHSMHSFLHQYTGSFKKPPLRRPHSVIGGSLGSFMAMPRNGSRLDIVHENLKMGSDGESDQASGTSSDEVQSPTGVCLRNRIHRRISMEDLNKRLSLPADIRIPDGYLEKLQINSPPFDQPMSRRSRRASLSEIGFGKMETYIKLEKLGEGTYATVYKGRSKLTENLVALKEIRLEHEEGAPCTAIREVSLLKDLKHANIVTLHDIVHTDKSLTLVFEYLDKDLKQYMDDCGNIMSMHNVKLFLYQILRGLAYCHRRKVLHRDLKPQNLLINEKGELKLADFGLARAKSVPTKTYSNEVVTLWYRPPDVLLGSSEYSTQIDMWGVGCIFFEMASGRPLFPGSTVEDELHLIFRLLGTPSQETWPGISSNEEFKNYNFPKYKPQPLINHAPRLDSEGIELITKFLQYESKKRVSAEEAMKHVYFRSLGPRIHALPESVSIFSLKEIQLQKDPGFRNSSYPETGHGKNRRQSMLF
Sequence of Dual specificity protein kinase CLK1 (P49759 whole entry): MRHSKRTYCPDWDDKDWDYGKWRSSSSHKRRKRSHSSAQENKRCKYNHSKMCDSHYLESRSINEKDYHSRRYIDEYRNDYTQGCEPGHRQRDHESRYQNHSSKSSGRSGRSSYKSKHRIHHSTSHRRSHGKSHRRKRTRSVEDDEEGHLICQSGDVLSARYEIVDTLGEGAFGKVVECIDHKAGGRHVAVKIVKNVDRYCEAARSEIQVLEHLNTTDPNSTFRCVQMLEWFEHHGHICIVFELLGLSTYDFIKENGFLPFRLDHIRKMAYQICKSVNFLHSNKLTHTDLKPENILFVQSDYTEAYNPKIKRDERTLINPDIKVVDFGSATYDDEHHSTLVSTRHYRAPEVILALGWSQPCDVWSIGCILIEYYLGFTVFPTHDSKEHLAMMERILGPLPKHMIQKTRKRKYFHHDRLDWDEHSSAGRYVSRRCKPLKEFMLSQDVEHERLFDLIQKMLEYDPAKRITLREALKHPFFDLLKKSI
Sequence of Mitogen-activated protein kinase kinase kinase kinase 4 (O95819 whole entry, canonical isoform): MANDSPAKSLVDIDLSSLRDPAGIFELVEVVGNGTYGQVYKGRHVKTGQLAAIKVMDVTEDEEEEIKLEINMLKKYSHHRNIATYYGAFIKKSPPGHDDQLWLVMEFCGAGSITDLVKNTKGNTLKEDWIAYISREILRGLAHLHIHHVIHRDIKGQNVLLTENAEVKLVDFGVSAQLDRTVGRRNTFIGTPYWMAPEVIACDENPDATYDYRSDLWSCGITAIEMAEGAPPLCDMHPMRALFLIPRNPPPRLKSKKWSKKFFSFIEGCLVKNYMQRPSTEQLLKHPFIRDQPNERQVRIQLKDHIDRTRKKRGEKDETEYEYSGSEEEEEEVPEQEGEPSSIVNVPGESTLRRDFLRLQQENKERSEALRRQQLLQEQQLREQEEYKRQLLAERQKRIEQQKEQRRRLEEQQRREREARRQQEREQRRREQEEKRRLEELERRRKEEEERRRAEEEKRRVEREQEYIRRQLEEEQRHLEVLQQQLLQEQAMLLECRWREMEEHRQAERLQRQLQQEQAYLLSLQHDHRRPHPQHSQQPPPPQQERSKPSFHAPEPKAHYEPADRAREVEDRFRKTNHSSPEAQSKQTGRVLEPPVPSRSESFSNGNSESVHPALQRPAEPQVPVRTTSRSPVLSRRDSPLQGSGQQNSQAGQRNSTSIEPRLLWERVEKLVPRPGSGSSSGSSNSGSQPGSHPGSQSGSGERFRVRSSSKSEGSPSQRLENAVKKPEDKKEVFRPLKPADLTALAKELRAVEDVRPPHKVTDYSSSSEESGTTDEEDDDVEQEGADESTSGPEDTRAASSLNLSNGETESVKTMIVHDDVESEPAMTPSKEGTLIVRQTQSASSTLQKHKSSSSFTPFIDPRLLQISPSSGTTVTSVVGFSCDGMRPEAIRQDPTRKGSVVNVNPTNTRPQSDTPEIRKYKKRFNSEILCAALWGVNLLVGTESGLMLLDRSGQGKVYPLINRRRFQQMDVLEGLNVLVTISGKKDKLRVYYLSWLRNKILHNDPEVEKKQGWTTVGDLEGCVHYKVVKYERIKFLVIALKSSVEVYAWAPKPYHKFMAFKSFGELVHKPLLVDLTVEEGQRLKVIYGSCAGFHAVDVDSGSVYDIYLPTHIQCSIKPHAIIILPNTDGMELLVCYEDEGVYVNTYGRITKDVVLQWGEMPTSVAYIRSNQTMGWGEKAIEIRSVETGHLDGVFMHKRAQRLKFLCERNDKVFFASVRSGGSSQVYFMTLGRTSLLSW
Sequence of Mitotic checkpoint serine/threonine-protein kinase BUB1 (O43683 whole entry): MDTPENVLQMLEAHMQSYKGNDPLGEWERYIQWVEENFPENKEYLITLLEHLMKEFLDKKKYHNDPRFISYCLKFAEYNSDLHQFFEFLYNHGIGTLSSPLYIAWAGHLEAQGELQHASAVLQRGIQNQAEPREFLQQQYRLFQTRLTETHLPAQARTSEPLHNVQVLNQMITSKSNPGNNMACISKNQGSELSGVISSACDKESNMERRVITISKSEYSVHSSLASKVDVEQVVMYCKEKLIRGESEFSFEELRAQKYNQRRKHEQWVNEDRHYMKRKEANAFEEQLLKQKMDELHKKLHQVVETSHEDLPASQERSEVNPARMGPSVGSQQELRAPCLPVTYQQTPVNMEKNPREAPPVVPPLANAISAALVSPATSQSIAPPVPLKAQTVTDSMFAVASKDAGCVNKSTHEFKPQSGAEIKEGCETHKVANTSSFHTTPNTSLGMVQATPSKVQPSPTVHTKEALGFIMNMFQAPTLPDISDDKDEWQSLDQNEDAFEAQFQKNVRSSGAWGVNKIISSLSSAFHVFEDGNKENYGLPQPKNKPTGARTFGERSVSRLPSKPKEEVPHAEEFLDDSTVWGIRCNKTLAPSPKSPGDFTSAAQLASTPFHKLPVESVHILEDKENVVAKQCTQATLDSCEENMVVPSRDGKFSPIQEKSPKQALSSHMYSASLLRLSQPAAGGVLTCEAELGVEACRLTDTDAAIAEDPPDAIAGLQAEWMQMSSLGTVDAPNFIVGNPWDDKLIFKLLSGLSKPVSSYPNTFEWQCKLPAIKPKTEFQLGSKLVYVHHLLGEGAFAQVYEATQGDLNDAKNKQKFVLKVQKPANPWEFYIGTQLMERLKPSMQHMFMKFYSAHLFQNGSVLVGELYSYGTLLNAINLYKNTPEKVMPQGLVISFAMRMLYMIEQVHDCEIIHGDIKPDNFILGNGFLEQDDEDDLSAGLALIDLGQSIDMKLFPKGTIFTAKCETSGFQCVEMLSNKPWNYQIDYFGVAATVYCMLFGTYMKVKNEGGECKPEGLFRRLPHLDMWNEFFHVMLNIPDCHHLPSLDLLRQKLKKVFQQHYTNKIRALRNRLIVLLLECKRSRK
Sequence of Adenosine kinase (P55263 whole entry): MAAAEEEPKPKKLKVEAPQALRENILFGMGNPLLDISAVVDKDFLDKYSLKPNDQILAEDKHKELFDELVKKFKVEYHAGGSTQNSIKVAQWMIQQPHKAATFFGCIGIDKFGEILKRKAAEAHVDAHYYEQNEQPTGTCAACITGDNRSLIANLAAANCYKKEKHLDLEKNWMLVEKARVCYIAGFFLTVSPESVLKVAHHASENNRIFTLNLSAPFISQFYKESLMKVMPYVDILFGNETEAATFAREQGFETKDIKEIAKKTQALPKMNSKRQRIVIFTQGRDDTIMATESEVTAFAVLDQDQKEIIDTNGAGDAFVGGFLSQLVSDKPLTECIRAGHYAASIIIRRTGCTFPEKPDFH
Sequence of Maternal embryonic leucine zipper kinase (Q14680 whole entry): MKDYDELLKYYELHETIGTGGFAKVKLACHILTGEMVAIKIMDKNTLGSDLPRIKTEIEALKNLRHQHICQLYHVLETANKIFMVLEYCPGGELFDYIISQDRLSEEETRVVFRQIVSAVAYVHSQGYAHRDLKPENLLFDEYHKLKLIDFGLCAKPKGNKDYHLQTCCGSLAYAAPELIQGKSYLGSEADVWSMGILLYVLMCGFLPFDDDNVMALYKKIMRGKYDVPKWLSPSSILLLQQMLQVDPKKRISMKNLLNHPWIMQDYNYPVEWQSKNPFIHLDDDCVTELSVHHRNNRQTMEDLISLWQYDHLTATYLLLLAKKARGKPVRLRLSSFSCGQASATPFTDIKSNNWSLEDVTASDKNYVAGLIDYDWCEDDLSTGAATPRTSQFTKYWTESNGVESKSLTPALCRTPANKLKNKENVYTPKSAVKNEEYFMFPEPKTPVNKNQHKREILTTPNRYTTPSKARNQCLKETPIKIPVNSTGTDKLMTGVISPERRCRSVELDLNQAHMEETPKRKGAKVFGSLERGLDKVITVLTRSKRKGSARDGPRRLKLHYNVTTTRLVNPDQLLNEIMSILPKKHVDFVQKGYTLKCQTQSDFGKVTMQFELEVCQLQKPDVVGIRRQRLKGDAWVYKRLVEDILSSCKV

As for `C[C@H]1CNCCCN1S(=O)(=O)c1cccc2cncc(F)c12`, the Kd (at Adenosine kinase; in test [1]; in test [2]; on Scaffold protein ILK; in [3]; in test [4]) was > 30 µM (inactive) in each case. Further, the Kd (as a rule, a measure of binding affinity in units of concentration) in [5] is > 30 µM (inactive); in test [6] it was > 30 µM (inactive); in test [7] it was > 30 µM (inactive); in test [8] it was 3.27 µM (active); in test [9], > 30 µM (inactive); in test [10] it was > 30 µM (inactive). Moreover, the Kd in test [11], in [12], in [13] and in [14] was > 30 µM (inactive) each time.

Consider `COc1cc(Nc2ncc3c(n2)-c2ccc(Cl)cc2C(c2c(F)cccc2OC)=NC3)ccc1C(=O)O` [ALISERTIB], for which the Kd (at Adenosine kinase; in test [1]; in test [2]; in test [15]; at Scaffold protein ILK; in test [4]) was > 30 µM (inactive) in each case. The Kd in test [7], in [9], in [11] and in test [12] was > 30 µM (inactive) in each case.

In the case of `CNC(=O)c1ccccc1Sc1ccc2c(/C=C/c3ccccn3)n[nH]c2c1` [AXITINIB], the Kd (at Adenosine kinase; in test [1]; on Scaffold protein ILK; in test [4]; in test [7]) was > 30 µM (inactive) throughout.

Consider `CC(C)(C)c1nc(-c2cccc(NS(=O)(=O)c3c(F)cccc3F)c2F)c(-c2ccnc(N)n2)s1` [DABRAFENIB], for which the Kd on Adenosine kinase is > 30 µM (inactive); in test [1], > 30 µM (inactive); in test [2], 0.036 µM (active); in [15], > 30 µM (inactive); at Scaffold protein ILK, > 30 µM (inactive); in [3], > 30 µM (inactive). Moreover, the Kd was > 30 µM (inactive) in test [4]; 1.82 µM (active) in [5]; > 30 µM (inactive) in test [7]; > 30 µM (inactive) in test [9]; > 30 µM (inactive) in test [10]; > 30 µM (inactive) in test [11]. Moreover, the results for the Kd in [12] and in test [13] were > 30 µM (inactive) and 0.066 µM (active), respectively.

For `Cn1cc(C2=C(c3cn(C4CCN(Cc5ccccn5)CC4)c4ccccc34)C(=O)NC2=O)c2ccccc21` [ENZASTAURIN], the Kd (at Adenosine kinase; in test [1]; on Scaffold protein ILK; in test [4]; in test [7]) was > 30 µM (inactive) throughout.

For the compound `C[C@@H](Oc1cc(-n2cnc3ccc(CN4CCN(C)CC4)cc32)sc1C(N)=O)c1ccccc1C(F)(F)F` [GSK-461364], the dissociation constant (Kd) at Adenosine kinase was 2.51 µM (active); in test [1] it was > 30 µM (inactive); at Scaffold protein ILK, > 30 µM (inactive); in test [4], > 30 µM (inactive); in [7], > 30 µM (inactive).

Turning to `Cc1[nH]c(/C=C2\C(=O)Nc3ccccc32)c(C)c1CCC(=O)O` [ORANTINIB], the Kd (at Adenosine kinase; in test [1]; in [2]; in [15]; on Scaffold protein ILK; in test [7]) was > 30 µM (inactive) each time. Besides, the Kd in [9] and in [12] was > 30 µM (inactive) in each case.

`NC(=O)c1c(OCc2c(F)cc(Br)cc2F)nsc1NC(=O)NCCCCN1CCCC1` [OSI-632]: the Kd (at Adenosine kinase; in test [15]; at Scaffold protein ILK; in test [4]; in [7]; in test [9]) was > 30 µM (inactive) each time. In addition, the Kd in test [12] and in [13] was > 30 µM (inactive) each time.

For `CC(=O)NCC(=O)N1[C@@H]2CC[C@H]1c1ccc(Nc3ncc(C(F)(F)F)c(NC4CCC4)n3)cc12` [PF-03814735], the Kd (on Adenosine kinase; in test [1]; in [2]; in test [15]; on Scaffold protein ILK; in test [4]) was > 30 µM (inactive) throughout. Also, the Kd in test [7] is > 30 µM (inactive); in test [12] it was > 30 µM (inactive); in test [13], 0.369 µM (active).

As for `O=C(NOCCO)c1cc(CN2OCCCC2=O)c(F)c(F)c1Nc1ccc(I)cc1F` [RO-4987655], the Kd (on Scaffold protein ILK; in test [4]; in test [7]) was > 30 µM (inactive) each time.

Take `N#CC[C@H](C1CCCC1)n1cc(-c2ncnc3[nH]ccc23)cn1` [RUXOLITINIB]: the Kd (on Adenosine kinase; in [1]; on Scaffold protein ILK; in test [4]; in test [7]) was > 30 µM (inactive) each time.

Consider `Cn1ncc(Cl)c1-c1cc(C(=O)N[C@H](CN)Cc2ccc(F)c(F)c2)oc1Cl` [UPROSERTIB], for which the Kd was > 30 µM (inactive) at Adenosine kinase; > 30 µM (inactive) in [1]; > 30 µM (inactive) at Scaffold protein ILK; > 30 µM (inactive) in test [3]; > 30 µM (inactive) in test [4]; 0.24 µM in test [5]. The Kd in test [6], in test [7], in [8], in test [9], in test [10] and in test [11] was > 30 µM (inactive) each time. Moreover, the Kd in test [13] and in test [14] was > 30 µM (inactive) in each case.

The values above are taken from ChEMBL document CHEMBL3991601, “The target landscape of clinical kinase drugs” (Science, 2017).
